In patent US10703746B2, “Mutant IDH1 inhibitors useful for treating cancer” (THE UNITED STATES OF AMERICA, AS REPRESENTED BY THE …, priority 2014, dated 2020) one finds IC50 data, which are given here for 48 molecules.

The term pIC50 denotes −log10 of the IC50, conventionally taken in molar units.

pIC50: −log10 of the molar value.

One assay addresses IDH1 R132C (Homo sapiens, UniProt O75874, R132C). Description: IDH1 R132C enzymatic assay (NADPH depletion coupled to diaphorase/resazurin). Format: biochemical. Conditions: IDH1 R132C enzymatic inhibition, IC50 class. The procedure, abridged:
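NADPH depletion, read via diaphorase/resazurin coupling, after adding substrate at 0.6 mM α-KG and 0.012 mM NADPH. Beforehand, 0.00032 mg/mL enzyme sat with compound 30 min at room temperature in pH 6.5 potassium phosphate buffer with MgCl2, glycerol and BSA.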
(Alamar Blue is a resazurin reagent that responds to reducing activity.)

The next assay deals with IDH1 R132H (Homo sapiens, UniProt O75874, R132H). As to the kind of experiment: IDH1 R132H enzymatic assay (NADPH depletion coupled to diaphorase/resazurin). Conditions: IDH1 R132H enzymatic inhibition, IC50 class. Format: biochemical.
Sequence of IDH1 R132H (O75874 whole entry R132H): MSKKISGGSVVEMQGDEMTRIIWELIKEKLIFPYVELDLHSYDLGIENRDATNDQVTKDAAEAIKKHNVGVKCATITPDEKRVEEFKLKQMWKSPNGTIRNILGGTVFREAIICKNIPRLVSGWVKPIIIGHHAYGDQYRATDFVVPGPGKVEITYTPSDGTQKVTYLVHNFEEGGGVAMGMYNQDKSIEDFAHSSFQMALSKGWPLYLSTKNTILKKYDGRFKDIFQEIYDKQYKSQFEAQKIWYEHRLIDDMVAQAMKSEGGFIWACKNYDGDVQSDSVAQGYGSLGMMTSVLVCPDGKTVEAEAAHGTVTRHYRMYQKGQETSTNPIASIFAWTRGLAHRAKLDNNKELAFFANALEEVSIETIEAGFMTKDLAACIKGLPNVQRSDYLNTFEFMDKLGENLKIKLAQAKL

Sequence of IDH1 R132C (O75874 whole entry R132C): as the sequence (O75874 whole entry R132H) above, with H132C counted along it

As to `CC1(C)CC(=O)c2cc(-c3nc(-c4ccc(Cl)cc4)cs3)c(=O)n(-c3ccccc3CO)c2C1` [Compound 269], the values for the pIC50 against IDH1 R132C and against IDH1 R132H were 5.30 to 6.00 and 4.70 to 5.30, respectively.
The corresponding values for `CCc1cccc(CC)c1-n1c(C)c(C(=O)NC2CCCCC2O)cc(-c2nc(-c3ccc(Cl)cc3)cs2)c1=O` (stereo not drawn) [Compound 270] are 5.30 to 6.00 and 5.30 to 6.00.
The like results for `CCc1cccc(CC)c1-n1c(C)c(C(=O)N(C)C)cc(-c2nc(-c3ccc(Cl)cc3)cs2)c1=O` [Compound 271] were, in that order, 5.30 to 6.00 and 5.30 to 6.00.
Take `CCc1cccc(CC)c1-n1c(CC(C)C)c(C(=O)N2CCNCC2CO)cc(-c2nc(-c3ccc(Cl)cc3)cs2)c1=O` (stereo not drawn) [Compound 272]: the figures for the pIC50 against IDH1 R132C and on IDH1 R132H were over 6.52 and 6.00 to 6.52, respectively.
The corresponding values for `CCc1cccc(CC)c1-n1c(CC(C)C)c(C(=O)N2CCNC(C)(CO)C2)cc(-c2nc(-c3ccc(Cl)cc3)cs2)c1=O` (stereo not drawn) [Compound 273] are over 6.52 and 6.00 to 6.52.
For the molecule `CCc1cccc(CC)c1-n1c(CC(C)C)c(C(=O)N2CCNCC2(C)C)cc(-c2nc(-c3ccc(Cl)cc3)cs2)c1=O` [Compound 274], the negative-log IC50 (pIC50) against IDH1 R132C was over 6.52; at IDH1 R132H, 6.00 to 6.52.
For the molecule `CCc1cccc(CC)c1-n1c(COC)c(C(=O)N2CCNCC2)cc(-c2nc(-c3ccc(Cl)cc3)cs2)c1=O` [Compound 275], the pIC50 against IDH1 R132C and against IDH1 R132H was over 6.52 in each case.
Take `CCc1cccc(CC)c1-n1c(CC(C)C)c(C(=O)NC[C@@H](C)O)cc(-c2nc(-c3ccc(Cl)cc3)cs2)c1=O` [Compound 276]: the pIC50 against IDH1 R132C is over 6.52; at IDH1 R132H, 6.00 to 6.52.
The like results for `Cc1noc(-n2c3c(cc(-c4nc(-c5ccc(Cl)cc5)cs4)c2=O)C(=O)CC(C)(C)C3)c1C` [Compound 277] were, in that order, 5.30 to 6.00 and 5.30 to 6.00.
As to `CCc1cccc(CC)c1-n1c(CCOC)c(C(=O)N2CCNCC2)cc(-c2nc(-c3ccc(Cl)cc3)cs2)c1=O` [Compound 278], the negative logarithm of the IC50 (pIC50) against IDH1 R132C and on IDH1 R132H was over 6.52 in each case.
In the case of `CCc1cccc(C)c1-n1c2c(cc(-c3nc(-c4ccc(Cl)cc4)cs3)c1=O)C(=O)CC(C)(C)C2` [Compound 279], the pIC50 against IDH1 R132C is 6.00 to 6.52; at IDH1 R132H, 5.30 to 6.00.
Turning to `COc1ccc(OC)c(-n2c3c(cc(-c4nc(-c5ccc(Cl)cc5)cs4)c2=O)C(=O)CNC3)c1` [Compound 280], the pIC50 against IDH1 R132C and at IDH1 R132H was 4.70 to 5.30 throughout.
For the molecule `CCc1cccc(CC)c1-n1c2c(cc(-c3nc(-c4ccc(O)cc4)cs3)c1=O)C(=O)CC(C)(C)C2` [Compound 281], the pIC50 at IDH1 R132C and against IDH1 R132H was 4.70 to 5.30 in each case.
In the case of `CCc1cccc(CC)c1-n1c2c(cc(-c3nc(-c4ccc(Cl)cc4)cs3)c1=O)C(=O)CC(C)(C)C2` [Compound 282], the pIC50 is over 6.52 against IDH1 R132C and 6.00 to 6.52 against IDH1 R132H.
The like results for `CCc1cccc(CC)c1-n1c(CC(C)C)c(C(=O)N2CCN[C@H](CO)C2)cc(-c2nc(-c3ccc(Cl)cc3)cs2)c1=O` [Compound 283] were, in that order, over 6.52 and 6.00 to 6.52.
Turning to `COc1ccc(OC)c(-n2c3c(cc(-c4cccc(-c5ccc(Cl)cc5)n4)c2=O)C(=O)CC(C)(C)C3)c1` [Compound 284], the pIC50 against IDH1 R132C and against IDH1 R132H was 4.70 to 5.30 in each case.
For the molecule `CCOc1ccc(-c2nc(-c3cc(C(=O)N4CCNCC4)c(CC(C)C)n(-c4c(CC)cccc4CC)c3=O)sc2C)cc1` [Compound 285], the pIC50 at IDH1 R132C and against IDH1 R132H was over 6.52 each time.
Consider `CC(=O)c1ccccc1-n1c2c(cc(-c3nc(-c4ccc(Cl)cc4)cs3)c1=O)C(=O)CC(C)(C)C2` [Compound 286], for which the pIC50 at IDH1 R132C and against IDH1 R132H was 5.30 to 6.00 throughout.
In the case of `COc1ccc(OC)c(-n2c3c(cc(-c4nnn(-c5ccc(Cl)cc5)n4)c2=O)C(=O)CC(C)(C)C3)c1` [Compound 287], the negative-log IC50 (pIC50) against IDH1 R132C is 5.30 to 6.00; against IDH1 R132H it was under 4.70.
On to `Cc1c(N)cccc1-n1c2c(cc(-c3nc(-c4ccc(Cl)cc4)cs3)c1=O)C(=O)CC(C)(C)C2` [Compound 288], for which the pIC50 against IDH1 R132C and against IDH1 R132H was 5.30 to 6.00 in each case.
On to `COc1ccc(OC)c(-n2c(=O)c(-c3nc(-c4ccc(Cl)cc4)cs3)cc3c(OC)cncc32)c1` [Compound 289], for which the pIC50 against IDH1 R132C is 4.70 to 5.30; at IDH1 R132H, under 4.70.
The corresponding values for `COc1ccc(OC)c(-n2c3c(cc(-c4c[nH]c(-c5ccccc5)n4)c2=O)C(=O)CC(C)(C)C3)c1` [Compound 290] are 5.30 to 6.00 and 5.30 to 6.00.
For `COc1ccc(OC)c(-n2c3c(cc(-c4nc(-c5ccc(Cl)cc5)c[nH]4)c2=O)C(=O)CC(C)(C)C3)c1` [Compound 291], the negative logarithm of the IC50 (pIC50) against IDH1 R132C and on IDH1 R132H was 5.30 to 6.00 in each case.
In the case of `CCc1cccc(CC)c1-n1c2c(cc(-c3nc(-c4ccc(C)cn4)c(C)s3)c1=O)C(=O)CC(C)(C)C2` [Compound 292], the pIC50 against IDH1 R132C and on IDH1 R132H was 5.30 to 6.00 each time.
Regarding `CCc1cccc(CC)c1-n1c(CC)c(C(=O)NC)cc(-c2nc(-c3ccc(Cl)cc3)cs2)c1=O` [Compound 293], the negative logarithm of the IC50 (pIC50) on IDH1 R132C and at IDH1 R132H was 6.00 to 6.52 throughout.
Consider `COc1ccc(OC)c(-n2c3c(cc(-c4cc(-c5ccccc5)[nH]n4)c2=O)C(=O)CC(C)(C)C3)c1` [Compound 294], for which the results for the pIC50 against IDH1 R132C and against IDH1 R132H were 4.70 to 5.30 and under 4.70, respectively.
Turning to `CC1(C)CC(=O)c2cc(-c3nc(-c4ccc(Cl)cc4)cs3)c(=O)n(-c3ccccc3-c3ccccc3)c2C1` [Compound 295], the negative logarithm of the IC50 (pIC50) on IDH1 R132C was 6.00 to 6.52; against IDH1 R132H, 5.30 to 6.00.
The corresponding values for `CCc1cccc(CC)c1-n1c(C)c(C(=O)NC2CCOCC2)cc(-c2nc(-c3ccc(Cl)cc3)cs2)c1=O` [Compound 296] are 5.30 to 6.00 and 5.30 to 6.00.
The like results for `CCc1cccc(CC)c1-n1c(CC(C)C)c(C(=O)N2CC(=O)N[C@@H](C(=O)O)C2)cc(-c2nc(-c3ccc(Cl)cc3)cs2)c1=O` [Compound 297] were, in that order, 6.00 to 6.52 and 6.00 to 6.52.
The like results for `CCc1cccc(CC)c1-n1c2c(cc(-c3nc(C4=CCNCC4)c(C)s3)c1=O)C(=O)CC(C)(C)C2` [Compound 298] were, in that order, 4.70 to 5.30 and under 4.70.
For `CCc1cccc(CC)c1-n1c2c(cc(-c3nc(-c4ccc(C)nc4)c(C)s3)c1=O)C(=O)CC(C)(C)C2` [Compound 299], the negative logarithm of the IC50 (pIC50) against IDH1 R132C and against IDH1 R132H was 5.30 to 6.00 each time.
As to `CCc1cccc(CC)c1-n1c(C)c(C(=O)N2CCNCC2)cc(-c2nc(-c3ccc(Cl)cc3)cs2)c1=O` [Compound 300], the negative logarithm of the IC50 (pIC50) was 6.00 to 6.52 against IDH1 R132C and over 6.52 against IDH1 R132H.
Regarding `CC1(C)CC(=O)c2cc(-c3nc(-c4ccc(Cl)cc4)cs3)c(=O)n(-c3ccccc3N)c2C1` [Compound 301], the pIC50 on IDH1 R132C and on IDH1 R132H was 5.30 to 6.00 each time.
Consider `CCc1cccc(CC)c1-n1c(C)c(C(=O)NC2CCNCC2)cc(-c2nc(-c3ccc(Cl)cc3)cs2)c1=O` [Compound 302], for which the negative-log IC50 (pIC50) at IDH1 R132C and at IDH1 R132H was 6.00 to 6.52 throughout.
Turning to `CCc1cccc(CC)c1-n1c(C)c(C(=O)NCCN)cc(-c2nc(-c3ccc(Cl)cc3)cs2)c1=O` [Compound 303], the negative logarithm of the IC50 (pIC50) was 5.30 to 6.00 against IDH1 R132C and 6.00 to 6.52 on IDH1 R132H.
With `CCc1cccc(CC)c1-n1c(C)c(C(=O)NCCCNC)cc(-c2nc(-c3ccc(Cl)cc3)cs2)c1=O` [Compound 304], the negative logarithm of the IC50 (pIC50) against IDH1 R132C is 6.00 to 6.52; against IDH1 R132H it was 5.30 to 6.00.
In the case of `CCc1cccc(CC)c1-n1c(CC(C)C)c(C(=O)N2CCNC(C)C2)cc(-c2nc(-c3ccc(Cl)cc3)cs2)c1=O` (stereo not drawn) [Compound 305], the negative-log IC50 (pIC50) is over 6.52 at IDH1 R132C and 6.00 to 6.52 at IDH1 R132H.
The corresponding values for `COc1ccc(OC)c(-n2c3c(cc(-c4nc(-c5ccc(Cl)cc5)no4)c2=O)C(=O)CC(C)(C)C3)c1` [Compound 306] are 4.70 to 5.30 and 4.70 to 5.30.
The like results for `CCc1cccc(CC)c1-n1c(CC(C)C)c(C(=O)N2CCNCC2)cc(-c2nc(-c3ccc(C(N)=O)cc3)c(C)s2)c1=O` [Compound 307] were, in that order, 4.70 to 5.30 and 4.70 to 5.30.
As to `CCc1cccc(CC)c1-n1c(C)c(C(=O)N(C)CCO)cc(-c2nc(-c3ccc(Cl)cc3)cs2)c1=O` [Compound 308], the negative logarithm of the IC50 (pIC50) against IDH1 R132C and against IDH1 R132H was 5.30 to 6.00 each time.
For `CCc1cccc(CC)c1-n1c2c(cc(C(=O)N(C)Cc3ccc(Cl)cc3)c1=O)C(=O)CC(C)(C)C2` [Compound 309], the pIC50 against IDH1 R132C and against IDH1 R132H was 4.70 to 5.30 throughout.
As for `CCc1cccc(CC)c1-n1c(CC(C)C)c(C(=O)N2CCNCC2)cc(-c2cccc(-c3ccc(Cl)cc3)n2)c1=O` [Compound 310], the negative-log IC50 (pIC50) against IDH1 R132C and at IDH1 R132H was 5.30 to 6.00 in each case.
With `CCc1cccc(CC)c1-n1c(C)c(C(=O)NC(C)C)cc(-c2nc(-c3ccc(Cl)cc3)cs2)c1=O` [Compound 311], the pIC50 against IDH1 R132C and against IDH1 R132H was 5.30 to 6.00 each time.
On to `CCc1cccc(CC)c1-n1c(CC(C)C)c(C(=O)N2CCCCC2CO)cc(-c2nc(-c3ccc(Cl)cc3)cs2)c1=O` (stereo not drawn) [Compound 312], for which the negative-log IC50 (pIC50) at IDH1 R132C is 6.00 to 6.52; against IDH1 R132H, 5.30 to 6.00.
The corresponding values for `CCc1cccc(CC)c1-n1c(C)c(C(=O)NCC(C)C)cc(-c2nc(-c3ccc(Cl)cc3)cs2)c1=O` [Compound 313] are 5.30 to 6.00 and under 4.70.
The like results for `CCc1cccc(CC)c1-n1c(CC(C)C)c(C(=O)N2CCNC(C(F)(F)F)C2)cc(-c2nc(-c3ccc(Cl)cc3)cs2)c1=O` (stereo not drawn) [Compound 314] were, in that order, 6.00 to 6.52 and 6.00 to 6.52.
For the molecule `CCc1ncc(F)cc1-n1c(C=C(C)C)c(C(=O)N2CCNCC2)cc(-c2nc(-c3ccc(C(F)(F)F)nc3)cs2)c1=O` [Compound 315], the negative-log IC50 (pIC50) was 5.30 to 6.00 at IDH1 R132C and 6.00 to 6.52 on IDH1 R132H.
Regarding `CC(C)=Cc1c(C(=O)N2CCNCC2)cc(-c2nc(-c3ccc(Cl)cc3)cs2)c(=O)n1-c1cc(F)cnc1OC(C)C` [Compound 316], the negative logarithm of the IC50 (pIC50) on IDH1 R132C and at IDH1 R132H was over 6.52 each time.
